Ki and inhibition data for 13 compounds are collected here from patent publication US12247028B2, “Azabicyclo and diazepine derivatives” (Alcon Inc., priority 2017, dated 2025).

Usually Ki stands for the equilibrium dissociation constant of an inhibitor or competing ligand from its target. By inhibition is commonly meant the share of the control response that was lost under treatment.

Experiment [1] has as its target T1, Human muscarinic receptor M3 (Homo sapiens, UniProt P20309).
T1 construct: host or cells: cell membrane homogenates
The experiment is described as follows: Human muscarinic receptor assay M3, [3H]4-DAMP binding. As to conditions: for Ki: 0.2 nM [3H]4-DAMP, cell membrane homogenates. The procedure: (§1) Human Muscarinic Receptor Assay
(§2) Cell membrane homogenates (8 μg protein) are incubated for 60 min at 22° C. with 0.2 nM [3H]4-DAMP in the absence or presence of the test compound in a buffer containing 10 mM Tris-HCl (pH 7.4) and 2 mM EDTA. Nonspecific binding is determined in the presence of 1 μM atropine. Following incubation, the samples are filtered rapidly under vacuum through glass fiber filters (GF/B, Packard) presoaked with 0.3% PEI and rinsed several times with ice-cold 50 mM Tris-HCl using a 96-sample cell harvester (Unifilter, Packard). The filters are dried then counted for radioactivity in a scintillation counter (Topcount, Packard) using a scintillation cocktail (Microscint 0, Packard). The results are expressed as a percent inhibition of the control radioligand specific binding. The standard reference compound is 4-DAMP, which is tested in each experiment at several concentrations to obtain a competition curve from which its Ki and IC50 are calculated.

The target in experiment [2] is T2, Human muscarinic receptor M2 (Homo sapiens, UniProt P08172).
T2 construct: host or cells: cell membrane homogenates
T2 sequence (P08172 1-466): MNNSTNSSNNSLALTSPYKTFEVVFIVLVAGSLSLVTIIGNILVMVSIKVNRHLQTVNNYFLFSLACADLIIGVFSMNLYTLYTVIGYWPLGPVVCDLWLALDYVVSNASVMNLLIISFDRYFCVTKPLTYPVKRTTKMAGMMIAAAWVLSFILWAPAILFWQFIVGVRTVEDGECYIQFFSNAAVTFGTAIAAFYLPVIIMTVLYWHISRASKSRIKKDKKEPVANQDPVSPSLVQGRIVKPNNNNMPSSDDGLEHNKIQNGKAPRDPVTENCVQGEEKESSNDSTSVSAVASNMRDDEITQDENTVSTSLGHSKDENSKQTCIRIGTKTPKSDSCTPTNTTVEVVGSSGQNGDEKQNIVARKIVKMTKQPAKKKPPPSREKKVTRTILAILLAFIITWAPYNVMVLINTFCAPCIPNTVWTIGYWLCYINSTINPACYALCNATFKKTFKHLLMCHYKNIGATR
Kind of experiment: Human muscarinic receptor assay M2, [3H]AF-DX 384 binding. As to conditions: for inhibition at 1 µM: read-out: percent inhibition of the control radioligand specific binding, M2. The procedure:
as §1
Cell membrane homogenates (60 μg protein) are incubated for 60 min at 22° C. with 2 nM [3H]AF-DX 384 in the absence or presence of the test compound in a buffer containing 50 mM Tris-HCl (pH 7.4), 120 mM NaCl, 5 mM KCl, 5 mM MgCl2 and 1 mM EDTA. Nonspecific binding is determined in the presence of 1 μM atropine. Following incubation, the samples are filtered rapidly under vacuum through glass fiber filters (GF/B, Packard) presoaked with 0.3% PEI and rinsed several times with ice-cold 50 mM Tris-HCl using a 96-sample cell harvester (Unifilter, Packard). The filters are dried then counted for radioactivity in a scintillation counter (Topcount, Packard) using a scintillation cocktail (Microscint 0, Packard). The results are expressed as a percent inhibition of the control radioligand specific binding. The standard reference compound is methoctramine, which is tested in each experiment at several concentrations to obtain a competition curve from which its Ki and IC50 are calculated.

The target of experiment [3] is T3, Human muscarinic receptor M5 (Homo sapiens, UniProt P08912).
T3 construct: host or cells: cell membrane homogenates
T3 sequence (P08912 1-532): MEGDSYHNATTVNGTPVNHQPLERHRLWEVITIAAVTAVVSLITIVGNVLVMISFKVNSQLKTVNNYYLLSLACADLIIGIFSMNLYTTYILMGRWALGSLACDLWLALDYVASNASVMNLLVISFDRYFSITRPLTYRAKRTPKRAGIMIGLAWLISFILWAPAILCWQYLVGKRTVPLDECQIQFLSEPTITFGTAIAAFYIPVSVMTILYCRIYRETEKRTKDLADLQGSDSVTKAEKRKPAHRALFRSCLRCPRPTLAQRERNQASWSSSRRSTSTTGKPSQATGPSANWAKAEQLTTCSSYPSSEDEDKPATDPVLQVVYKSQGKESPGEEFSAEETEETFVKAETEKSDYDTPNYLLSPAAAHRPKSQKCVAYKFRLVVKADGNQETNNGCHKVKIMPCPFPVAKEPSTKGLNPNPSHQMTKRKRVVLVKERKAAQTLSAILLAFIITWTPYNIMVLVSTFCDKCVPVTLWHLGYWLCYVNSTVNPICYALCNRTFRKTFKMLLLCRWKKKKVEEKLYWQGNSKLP
Kind of experiment: Human muscarinic receptor assay M5, [3H]4-DAMP binding. On the procedure: as §1
as §2, with “(15” for “(8”, “0.3” for “0.2”

[4] abbreviates: 0.3 nM [3H]4-DAMP, cell membrane homogenates, read-out: Ki M5.

The structures appear in SMILES notation. Like-named read-outs stand apart in the source and are kept apart here.

T1 sequence (P20309 whole entry): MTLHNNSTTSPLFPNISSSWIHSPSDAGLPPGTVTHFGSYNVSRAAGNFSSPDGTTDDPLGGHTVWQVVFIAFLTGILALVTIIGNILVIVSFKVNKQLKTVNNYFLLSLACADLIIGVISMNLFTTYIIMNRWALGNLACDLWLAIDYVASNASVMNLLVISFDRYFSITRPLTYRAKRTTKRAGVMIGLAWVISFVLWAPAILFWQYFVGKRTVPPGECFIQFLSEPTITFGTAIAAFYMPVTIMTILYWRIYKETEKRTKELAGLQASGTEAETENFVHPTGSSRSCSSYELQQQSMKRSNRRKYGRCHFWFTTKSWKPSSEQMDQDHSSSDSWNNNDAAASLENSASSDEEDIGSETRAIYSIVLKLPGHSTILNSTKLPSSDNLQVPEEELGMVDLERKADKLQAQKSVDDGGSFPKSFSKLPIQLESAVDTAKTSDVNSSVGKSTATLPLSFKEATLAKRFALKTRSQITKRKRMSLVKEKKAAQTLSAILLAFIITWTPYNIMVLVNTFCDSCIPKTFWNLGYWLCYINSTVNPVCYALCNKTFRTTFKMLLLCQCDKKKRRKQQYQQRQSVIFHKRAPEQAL

Consider `CN1C2CCC1CC(OC(=O)C(C)(CO)c1cccs1)C2` (stereo not drawn), for which the Ki in experiment [1] was 0.78 nM; in experiment [2], 7.9 nM; in experiment [3], 0.71 nM.

As to `CN1C2CCC1CC(OC(=O)C(CO)(CC(F)(F)F)c1ccccc1)C2` (stereo not drawn), the Ki came to 2 nM in experiment [1]; 240 nM in experiment [2] (2 nM [3H]AF-DX 384, cell membrane homogenates, read-out: Ki M2); 1.9 nM in experiment [3].

As for `COCC(C)(C(=O)OC1CC2CCC(C1)N2C)c1ccccc1` (stereo not drawn), the inhibition constant (Ki) in experiment [1] was 13 nM; in experiment [2], 72 nM; in experiment [3], 8.5 nM.

In the case of `COc1ccc(CC(CO)(C(=O)OC2CC3CCC(C2)N3C)c2ccccc2)cc1` (stereo not drawn), the Ki in experiment [1] amounted to 610 nM; in experiment [3] (setting [4]), 320 nM. In experiment [2], the inhibition at 1 µM is less than 50%.

`CCC(CO)(C(=O)OC1CC2CCC(C1)N2C)c1ccccc1` (stereo not drawn): the Ki in experiment [1] was determined as 1.3 nM; in experiment [2], 35 nM; in experiment [3], 1.1 nM.

Regarding `CN1C2CCC1CC(OC(=O)C(C)(CO)c1ccccc1)C2` (stereo not drawn), the Ki in experiment [1] was found to be 2 nM; in experiment [2] it was 11 nM; in experiment [3] it was 0.68 nM.

Take `CN1C2CCC1CC(OC(=O)C(CO)(Cc1ccc(F)cc1)c1ccccc1)C2` (stereo not drawn): the Ki came to 310 nM in experiment [1] and 160 nM in experiment [3]. For the same compound, the inhibition at 1 µM in experiment [2] was less than 50%.

In the case of `CN1C2CCC1CC(OC(=O)C(CO)(CC1CC1)c1ccccc1)C2` (stereo not drawn), the Ki worked out at 1.3 nM in experiment [1], 39 nM in experiment [2] and 0.99 nM in experiment [3].

With `CN1C2CCC1CC(OC(=O)C(C)(CF)c1ccccc1)C2` (stereo not drawn), the figures for the Ki in experiment [1], in experiment [2] and in experiment [3] were 14 nM, 110 nM and 7.2 nM, respectively.

For the compound `CN1C2CCC1CC(OC(=O)C(CO)(CO)c1ccccc1)C2` (stereo not drawn), the values for the Ki in experiment [1], in experiment [2] and in experiment [3] were 4.1 nM, 54 nM and 4.5 nM, respectively.

On to `CN1C2CCC1CC(OC(=O)C(F)(CO)c1ccccc1)C2` (stereo not drawn), for which the Ki in experiment [1] came to 2.9 nM; in experiment [2], 15 nM; in experiment [3] it was 0.71 nM.

With `CN1C2CCC1CC(OC(=O)C(CO)(Cc1ccccc1)c1ccccc1)C2` (stereo not drawn), the inhibition at 1 µM in experiment [1] (@ 1 μM, read-out: percent inhibition of the control radioligand specific binding, M3) was less than 50%; in experiment [2], less than 50%. Also, in experiment [3] (setting [4]), the Ki is 280 nM.

With `CN1C2CCC1CC(NC(=O)C(C)(CO)c1ccccc1)C2` (stereo not drawn), the inhibition constant (Ki) worked out at 150 nM in experiment [1] and 52 nM in experiment [3]. The inhibition at 1 µM in experiment [2] was less than 50%.
